Assays:
D(2) dopamine receptor = D(2) dopamine receptor (Rattus norvegicus, UniProt P61169); assay: Binding affinity at dopamine D2 receptor by [3H]spiperone displacement.
[1] = target: Serotonin 2 (5-HT2) receptor (Rattus norvegicus, UniProt P30994+P08909+P14842); assay: Binding affinity at serotonin 5-hydroxytryptamine 2 receptor by [3H]ketanserin displacement.; assay type: protein assay

D(2) dopamine receptor, sequence (P61169 whole entry): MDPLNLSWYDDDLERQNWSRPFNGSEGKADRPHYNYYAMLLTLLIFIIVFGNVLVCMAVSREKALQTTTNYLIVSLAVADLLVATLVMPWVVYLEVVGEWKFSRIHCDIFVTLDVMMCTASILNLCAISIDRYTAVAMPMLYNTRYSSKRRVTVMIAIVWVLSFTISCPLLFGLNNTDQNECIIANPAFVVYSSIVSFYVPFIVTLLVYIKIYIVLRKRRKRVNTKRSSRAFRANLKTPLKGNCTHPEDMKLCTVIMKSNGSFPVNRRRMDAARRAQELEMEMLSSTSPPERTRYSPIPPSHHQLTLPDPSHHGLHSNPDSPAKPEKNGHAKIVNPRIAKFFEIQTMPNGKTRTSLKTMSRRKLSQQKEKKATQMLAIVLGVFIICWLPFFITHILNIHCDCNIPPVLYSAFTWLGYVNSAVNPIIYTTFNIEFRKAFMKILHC

| Structure (SMILES) | IC50 (D(2) dopamine receptor; read-out: IC50) [nM] | IC50 [1] [nM] | also measured |
| --- | --- | --- | --- |
| CN1CCC(=C2c3ccccc3C(O)c3ccccc32)CC1 (stereo not drawn) | 1600 | 2.6 |  |
| O=C1NCCN1CCN1CCN([C@@H]2C[C@@H](c3ccc(F)cc3)c3cc(Cl)ccc32)CC1 |  | 2.6 |  |
| CN1CCC(=C2c3ccccc3C=Cc3ccc(Br)cc32)CC1 |  |  | Ki (D(2) dopamine receptor): 4 nM |
| OCCN1CCN([C@@H]2C[C@@H](c3ccc(F)cc3)c3ccc(C(F)(F)F)cc32)CC1 [TEFLUDAZINE] |  | 3.1 |  |
| O=C1NCCN1CCN1CC=C(c2cn(-c3ccc(F)cc3)c3ccccc23)CC1 | 5.1 | 1.7 |  |
| CN1CCC(=C2c3ccccc3C=Cc3ccccc32)CC1 [CYPROHEPTADINE] |  |  | IC50 (D(2) dopamine receptor): 140 nM |

Source: ChEMBL document CHEMBL1127838, “Development of a receptor-interaction model for serotonin 5-HT2 receptor antagonists. Predicting selectivity with respect to dopamine D2 receptors” (J Med Chem, 1994)
